# Laboratory results reported in patent US12071488B2, “Method of sensitizing cancer cells to anti-cancer treatment” (TWO TO BIOTECH LTD., priority 2017, dated 2024).
# What was measured:
# HER2 receptor = experiment: FACS analysis of HER2 receptor expression on MDA-MB-231 cells; format: cell-based, human
# Description: (§1) Cells (MDA-MB-231, MDA-MB-468 and BTS-149) were grown until 70-80% density was reached. Then the growth medium was discarded and the cells were treated with trypsin and medium as described above. After the cells were detached from the surface, the 20 ml cell suspension (namely cells in medium and Trypsin) were transferred into 50 ml conical tubes and centrifuged at 300 g for 10 min in 4° C. Next, the supernatant was discarded and 2 ml fresh medium were added to the cell pellet. Then the cells were fluidized and 13 ml medium was added to the tubes, thereby suspending the cells in a total of 15 ml medium. The cells were counted and seeded at 10.000-15,000 cells/well on chamber slide in 1 ml growing medium. The chamber slide seeded with cells was placed in the hood for 1 hour and then transferred to the incubator for an overnight incubation under the above conditions. The following day the medium was aspirated from the cell chamber slides and discarded and 1 ml cell treatment medium supplemented with APC1 (at a final concentration of 100 or 250 μg/ml) or control (medium only). Medium was added to each one of the wells (aliquots of APC1 were used in order to avoid repeated freeze-thaw cycle). The cells were then incubated for 24-144 hours. […]
# HER2 = experiment: Immunofluorescence of HER2 in MDA-MB-231 cells; format: cell-based, human
# Description: as §1
# MDA-MB-231 cells [1] = experiment: FACS analysis of apoptosis (Annexin) in MDA-MB-231 cells; format: cell-based, human
# Text: Cells were examined for apoptosis or HER2 expression using FACS analysis. The HER2 antibody used was abcam ab16901. The marker Annexin (Enco) was used for assessment of apoptosis.
# MDA-MB-231 cells [2] = experiment: Resazurin cell viability assay with APC1 and cisplatin or doxorubicin, MDA-MB-231 cells; format: cell-based, human; conditions: MDA-MB-231 pre-incubated with APC1 250 μg/ml; doxorubicin 0.3, 0.5, 1 μM, 48 hours; concentration dependent
# Description: Cells treated with APC1 were seeded with APC1 at 250 μg/ml. The cells were incubated overnight.
# Then the media was aspirated from the plates, and 100 μl of the treatment solutions were added to the appropriate wells, each treatment in triplicates. The cells were incubated for 48 hours.
# [3] = tested on: human TNBC tumors (MDA-MB-231); experiment: Relative tumor volume in nude mice inoculated with TNBC cells; format: in vivo; conditions: MDA-MB-231 tumors
# Text: To this end, mice were inoculated with TNBC cells as detailed above, briefly 32 nude mice were inoculated subcutaneously with TNBC cells (MDA-MB-231, 8×10^6 cells per mouse).
# [4] = tested on: ovarian cancer cells OV90 and OV3; experiment: Glutathione level in ovarian cancer cells treated with APC1; format: cell-based, human; conditions: ovarian cancer cells (FIG. 18A)
# Description: (§2) Gluthatione Assay Kit (Sigma CS0260);
# (§3) Cell lines (MDA-MB-231, MDA-MB-468) were grown in 75 cm^2 cell culture flask, reached 80-90% confluence. The cells were treated with APC1 (250 μg/ml, 2 times per week for 1 week).
# (§4) Cells were washed twice with 10 ml PBS, PBS (5 ml) was added and the cells were collected by scrapping, centrifuged at 300G, 4° C. for 5 minutes, the supernatant was then discarded and the cells were treated with APC1 as indicated above. The values of the Glutathione Standard Solutions were used to determine the standard curve and the delta A412/min equivalent to 1 nmole of reduced glutathione per well was calculated according to manufacturer's instructions.
# (§5) As detailed above, the ovarian cancer cells OV90 and OV3, the pancreatic cancer cells BxPC3 and Panel and the TNBC cancer cells MDA-MB-231 and MDA-MB-468 were treated with APC1 and then the relative glutathione levels in these cells was measured as detailed above.
# [5] = tested on: pancreatic cancer cells BxPC3; experiment: Glutathione level in pancreatic cancer cells treated with APC1; format: cell-based, human; conditions: pancreatic cancer cells (FIG. 18B)
# Description: as §2, §3, §4, §5
sequence,measurement,setting,value
"EKGAAFSPIYPRRK (C terminal peptide of KTPAF50) [APC1, polypeptide consisting of the 14 C-terminal amino acid residues of the peptide KTPAF50]",dependence of HER2 expression on APC1 concentration (FACS),HER2 receptor; 100 μg/ml vs 250 μg/ml APC1,concentration dependent
same,HER2 expression (FACS),"HER2 receptor; MDA-MB-231 cells, two doses of APC1 at 100 or 250 μg/ml, vs control cells",rise in HER2 expression
same,HER2 expression by immunofluorescence,"HER2; single dose 250 μg/ml APC1, 48 hours, vs control cells",clear HER2 expression
same,"HER2 expression by immunofluorescence, multiple doses","HER2; three doses of 250 μg/ml APC1, 144, 96 and 72 hours, vs single dose",enhanced
same,apoptosis with APC1 per se,MDA-MB-231 cells [1]; APC1 alone (FIG. 5A and FIG. 5B),insignificant (if any)
same,level of cellular apoptosis,"MDA-MB-231 cells [1]; MDA-MB-231, prolonged incubation, Kadcyla 96 hours (FIG. 6)",low level of apoptosis
same,sensitivity to doxorubicin (relative cell viability),MDA-MB-231 cells [2],increased the sensitivity
same,effect on tumor volume compared with doxorubicin-treated group,[3]; APC1 15 mg/kg three times a week,more pronounced
same,relative tumor volume,"[3]; APC1 15 mg/kg, doxorubicin 3 mg/kg once a week, 5 weeks, control increased linearly",moderate increase
same,level of glutathione,[4],decreased
same,level of glutathione,[5],decreased
